Data reported in patent publication US20200216416A1, “QUINOLINE COMPOUNDS AS INHIBITORS OF TAM AND MET KINASES” (Array BioPharma Inc., priority 2019, published 2020).

Tests used:
[1] = target: T1, GST-tagged recombinant human TYRO3 kinase domain (Homo sapiens, UniProt Q06418); assay: TYRO3 Enzyme Assay (LanthaScreen Eu Kinase Binding); conditions: averaged IC50; TYRO3 5 nM; 60-minute incubation at 22° C.; TR-FRET
T1 construct: GST-tagged recombinant human TYRO3 kinase domain; purchased Carna PR7480A
T1 sequence (Q06418 518-790 limits assumed): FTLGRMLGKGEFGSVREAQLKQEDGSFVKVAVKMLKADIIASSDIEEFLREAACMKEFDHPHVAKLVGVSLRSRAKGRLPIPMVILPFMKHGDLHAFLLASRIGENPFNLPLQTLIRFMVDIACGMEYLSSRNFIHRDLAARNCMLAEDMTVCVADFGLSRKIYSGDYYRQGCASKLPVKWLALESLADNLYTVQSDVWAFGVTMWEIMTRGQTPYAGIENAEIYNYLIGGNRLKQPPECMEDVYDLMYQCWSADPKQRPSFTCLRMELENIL
Method: Compounds disclosed herein were screened for their ability to inhibit TYRO3 kinase using Invitrogen's LanthaScreenTM Eu Kinase Binding technology. GST-tagged recombinant human TYRO3 kinase domain from Carna (5 nM; Cat. No. P[…]) was incubated with 20 nM Alexa-Fluor® Tracer 236 (P[…]) and 2 nM Europium-anti-GST (Cat. No. A15116) along with test compound in a buffer consisting of 25 mM HEPES, pH 7.4, 10 mM MgCl2, 0.01% Triton X-100, and 2% DMSO. Compounds are typically prepared in a threefold serial dilution in DMSO and added to the assay to give the appropriate final concentration. After a 60-minute incubation at 22° C., the reaction was measured using a PerkinElmer EnVision multimode plate reader via TR-FRET dual wavelength detection, and the percent of control (POC) calculated using a ratiometric emission factor. […] The POC values were fit to a 4 parameter logistic curve and the IC50 value is point where the curve crosses 50 POC.

human MET kinase D1228N = target: T2, human MET kinase D1228N (Homo sapiens, UniProt P08581, D1228N); assay: c-Met Enzyme Assay, D1228N mutant; format: binding; conditions: averaged IC50; D1228N 2 nM; 60-minute incubation at 22° C.; read-out: D1228 N IC50
T2 construct: GST-tagged recombinant human MET kinase domain; purchased Signal Chem
T2 sequence (P08581 1078-1345 D1228N): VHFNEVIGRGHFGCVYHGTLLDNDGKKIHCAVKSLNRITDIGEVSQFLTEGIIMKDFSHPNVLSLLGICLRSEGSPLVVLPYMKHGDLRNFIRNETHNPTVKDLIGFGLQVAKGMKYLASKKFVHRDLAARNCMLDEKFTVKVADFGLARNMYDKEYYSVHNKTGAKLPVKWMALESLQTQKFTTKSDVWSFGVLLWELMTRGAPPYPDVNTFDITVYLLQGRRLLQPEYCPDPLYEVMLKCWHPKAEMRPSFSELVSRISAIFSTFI
Method: (§1) The affinity of compound binding to wild type and mutant human MET kinases was measured using Invitrogen's LanthaScreen™ Eu Kinase Binding technology. Briefly, GST-tagged recombinant human MET kinase domain from Signal Chem (see Table 8 below for concentration in assay) was incubated with 50 nM Alexa-Fluor® Tracer 236 (Invitrogen Cat No. PR9078A) and 2 nM Europium-anti-GST (Invitrogen Cat. No. A15116) along with test compound in a buffer consisting of 25 mM HEPES, pH 7.4, 10 mM MgCl2, 0.01% Triton X-100, 1mM DTT, and 2% DMSO. Compounds were typically prepared in a three-fold serial dilution in DMSO and added to the assay to give the appropriate final concentration. After a 60-minute incubation at 22° C., the reaction was measured using a PerkinElmer EnVision multimode plate reader via TR-FRET dual wavelength detection, and the percent of control (POC) calculated using a ratiometric emission factor. […] The POC values were fit to a 4 parameter logistic curve and the IC50 value is point where the curve crosses 50 POC.

human MET kinase F1200I = target: T3, human MET kinase F1200I (Homo sapiens, UniProt P08581, F1200I); assay: c-Met Enzyme Assay, F1200I mutant; format: binding; conditions: averaged IC50; F1200I 2 nM; 60-minute incubation at 22° C.
T3 construct: GST-tagged recombinant human MET kinase domain; purchased Signal Chem
T3 sequence (P08581 1078-1345 F1200I limits assumed): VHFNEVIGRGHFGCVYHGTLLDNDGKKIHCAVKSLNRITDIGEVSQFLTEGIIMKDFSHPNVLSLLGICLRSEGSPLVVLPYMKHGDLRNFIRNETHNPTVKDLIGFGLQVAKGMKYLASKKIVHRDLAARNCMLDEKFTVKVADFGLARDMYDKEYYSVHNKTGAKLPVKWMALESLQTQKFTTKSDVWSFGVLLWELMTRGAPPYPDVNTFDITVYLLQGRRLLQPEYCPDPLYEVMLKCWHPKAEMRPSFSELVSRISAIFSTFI
Method: as §1

human MET kinase L1195V = target: T4, human MET kinase L1195V (Homo sapiens, UniProt P08581, L1195V); assay: c-Met Enzyme Assay, L1195V mutant; format: binding; conditions: averaged IC50; L1195V 10 nM; 60-minute incubation at 22° C.
T4 construct: GST-tagged recombinant human MET kinase domain; purchased Signal Chem
T4 sequence (P08581 1078-1345 L1195V limits assumed): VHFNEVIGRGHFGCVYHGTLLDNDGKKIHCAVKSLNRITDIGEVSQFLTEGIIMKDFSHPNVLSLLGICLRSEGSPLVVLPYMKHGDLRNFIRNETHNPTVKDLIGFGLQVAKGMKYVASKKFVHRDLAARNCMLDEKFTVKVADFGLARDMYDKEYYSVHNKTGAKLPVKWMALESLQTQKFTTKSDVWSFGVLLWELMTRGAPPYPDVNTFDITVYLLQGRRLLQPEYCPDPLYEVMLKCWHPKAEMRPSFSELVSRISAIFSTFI
Method: as §1

Structure (SMILES): COc1cc2nccc(Oc3ccc(NC(=O)c4cn(C)cc(-c5ccc(F)cc5)c4=O)nc3)c2cc1OC [Example 2]
- IC50 [1]: 6 nM
- IC50 (human MET kinase D1228N): 29.3 nM
- IC50 (human MET kinase F1200I): 6.8 nM
- IC50 (human MET kinase L1195V): 87.1 nM

Structure (SMILES): COc1cc2nccc(Oc3ccc(NC(=O)c4cn(CCN(C)C)cc(-c5ccc(Cl)cc5)c4=O)nc3)c2cc1OC [Example 42]
- IC50 [1]: 16 nM
- IC50 (human MET kinase D1228N): 7 nM
- IC50 (human MET kinase F1200I): 3.4 nM
- IC50 (human MET kinase L1195V): 8.2 nM

Structure (SMILES): COc1cc2nccc(Oc3ccc(NC(=O)c4cn(CCC(C)C)cc(-c5ccc(F)cc5)c4=O)nc3)c2cc1OC [Example 34, N-(5-((6,7-dimethoxyquinolin-4yl)oxy)pyridin-2-yl)-5-(4-fluorophenyl)-1-isopentyl-4-oxo-1,4-dihydropyridine-3-carboxamide]
- IC50 [1]: 14 nM
- IC50 (human MET kinase D1228N): 7.2 nM
- IC50 (human MET kinase F1200I): 7.4 nM
- IC50 (human MET kinase L1195V): 11.2 nM

Structure (SMILES): COc1cc2nccc(Oc3ccc(NC(=O)c4cn(C(C)C)cc(-c5ccc(F)cc5F)c4=O)nc3)c2cc1OC [Example 4]
- IC50 [1]: 5 nM
- IC50 (human MET kinase D1228N): 6.5 nM
- IC50 (human MET kinase F1200I): 3 nM
- IC50 (human MET kinase L1195V): 21.9 nM

Structure (SMILES): COc1cc2c(Oc3ccc(NC(=O)c4cn(C(C)C)cc(-c5ccc(F)cc5)c4=O)nc3)ccnc2cc1F [Example 49, N-(5-((7-fluoro-6-methoxyquinolin-4yl)oxy)pyridin-2-yl)-5-(4-fluorophenyl)-1-isopropyl-4-oxo-1,4-dihydropyridine-3-carboxamide]
- IC50 [1]: 58 nM
- IC50 (human MET kinase D1228N): 130 nM
- IC50 (human MET kinase F1200I): 27.8 nM
- IC50 (human MET kinase L1195V): 459 nM

Structure (SMILES): COc1cc2nccc(Oc3ccc(NC(=O)c4cn(C(C)C)cc(-c5ccc(F)cc5)c4=O)nc3)c2cc1OC [Example 1]
- IC50 [1]: 5 nM
- IC50 (human MET kinase D1228N): 3.4 nM
- IC50 (human MET kinase F1200I): 2.5 nM
- IC50 (human MET kinase L1195V): 7.1 nM

Structure (SMILES): COc1cc2nccc(Oc3ccc(NC(=O)c4cn(CC(=O)N(C)C)cc(-c5ccc(F)c(F)c5)c4=O)nc3)c2cc1OC [Example 24, 5-(3,4-difluorophenyl)-N-(5-((6,7-dimethoxyquinolin-4-yl)oxy)pyridin-2-yl)-1-(2-(dimethylamino)-2-oxoethyl)-4-oxo-1,4-dihydropyridine-3-carboxamide]
- IC50 [1]: 54 nM
- IC50 (human MET kinase D1228N): 36.7 nM
- IC50 (human MET kinase F1200I): 11.2 nM
- IC50 (human MET kinase L1195V): 92 nM

Structure (SMILES): CC(C)n1cc(C(=O)Nc2ccc(Oc3ccnc4cc(OC(F)(F)F)ccc34)cn2)c(=O)c(-c2ccc(F)cc2)c1 [Example 50, 5-(4-fluorophenyl)-1-isopropyl-4-oxo-N-(5-((7-(trifluoromethoxy)quinolin-4-yl)oxy)pyridin-2-yl)-1,4-dihydropyridine-3-carboxamide]
- IC50 [1]: 470 nM
- IC50 (human MET kinase D1228N): 444 nM
- IC50 (human MET kinase F1200I): 104 nM
- IC50 (human MET kinase L1195V): 1030 nM

Structure (SMILES): CCc1c(-c2ccc(F)cc2)c(=O)c(C(=O)Nc2ccc(Oc3ccnc4cc(OC)c(OC)cc34)cn2)cn1C(C)C [Example 29, N-(5-((6,7-dimethoxyquinolin-4yl)oxy)pyridin-2-yl)-6-ethyl-5-(4-fluorophenyl)-1-isopropyl-4-oxo-1,4-dihydropyridine-3-carboxamide]
- IC50 [1]: 6 nM
- IC50 (human MET kinase D1228N): 3.1 nM
- IC50 (human MET kinase F1200I): 3.2 nM
- IC50 (human MET kinase L1195V): 5.1 nM

Structure (SMILES): COc1cc2nccc(Oc3ccc(NC(=O)c4cn(CCN(C)C)cc(-c5ccc(F)cc5)c4=O)nc3)c2cc1OC [Example 46]
- IC50 [1]: 5 nM
- IC50 (human MET kinase D1228N): 5.4 nM
- IC50 (human MET kinase F1200I): 3.4 nM
- IC50 (human MET kinase L1195V): 21.9 nM

Structure (SMILES): COc1cc2nccc(Oc3ccc(NC(=O)c4cn(CC(C)C)cc(-c5ccc(F)cc5)c4=O)nc3)c2cc1OC [Example 11, N-(5-((6,7-dimethoxyquinolin-4-yl)oxy)pyridin-2-yl)-5-(4-fluorophenyl)-1-isobutyl-4-oxo-1,4-dihydropyridine-3-carboxamide]
- IC50 [1]: 33 nM
- IC50 (human MET kinase D1228N): 9.4 nM
- IC50 (human MET kinase F1200I): 6.9 nM
- IC50 (human MET kinase L1195V): 21.4 nM

Structure (SMILES): COc1cc2nccc(Oc3ccc(NC(=O)c4cn(C(C)C)c(C)c(-c5ccc(F)c(F)c5)c4=O)nc3)c2cc1OC [Example 28, 5-(3,4-difluorophenyl)-N-(5-((6,7-dimethoxyquinolin-4yl)oxy)pyridin-2-yl)-1-isopropyl-6-methyl-4-oxo-1,4-dihydropyridine-3-carboxamide]
- IC50 [1]: 7 nM
- IC50 (human MET kinase D1228N): 3.6 nM
- IC50 (human MET kinase F1200I): 2.4 nM
- IC50 (human MET kinase L1195V): 4 nM

Structure (SMILES): COc1cc2nccc(Oc3cnc(NC(=O)c4cn(C(C)C)cc(-c5ccc(F)cc5)c4=O)nc3)c2cc1OC [Example 54, N-(5-((6,7-dimethoxyquinolin-4-yl)oxy)pyrimidin-2-yl)-5-(4-fluorophenyl)-1-isopropyl-4-oxo-1,4-dihydropyridine-3-carboxamide]
- IC50 [1]: 21 nM
- IC50 (human MET kinase D1228N): 8.3 nM
- IC50 (human MET kinase F1200I): 6.7 nM
- IC50 (human MET kinase L1195V): 14.7 nM

Structure (SMILES): COc1cc2nccc(Oc3ccc(NC(=O)c4cn(CC(=O)N5CCOCC5)cc(-c5ccc(F)cc5F)c4=O)nc3)c2cc1OC [Example 15, 5-(2,4-difluorophenyl)-N-(5-((6,7-dimethoxyquinolin-4-yl)oxy)pyridin-2-yl)-1-(2-morpholino-2-oxoethyl)-4-oxo-1,4-dihydropyridine-3-carboxamide]
- IC50 [1]: 292 nM
- IC50 (human MET kinase D1228N): 73.7 nM
- IC50 (human MET kinase F1200I): 24.4 nM
- IC50 (human MET kinase L1195V): 61.4 nM

Structure (SMILES): COCCn1cc(C(=O)Nc2ccc(Oc3ccnc4cc(OC)c(OC)cc34)cn2)c(=O)c(-c2ccc(F)cc2)c1 [Example 7, N-(5((6,7-dimethoxyquinolin-4-yl)oxy)pyridin-2-yl)-5-(4-fluorophenyl)-1-(2-methoxyethyl)-4-oxo-1,4-dihydropyridine-3-carboxamide]
- IC50 [1]: 7 nM
- IC50 (human MET kinase D1228N): 6.4 nM
- IC50 (human MET kinase F1200I): 3.7 nM
- IC50 (human MET kinase L1195V): 7.3 nM

Structure (SMILES): CCn1cc(C(=O)Nc2ccc(Oc3ccnc4cc(OC)c(OC)cc34)cn2)c(=O)c(-c2ccc(F)cc2)c1 [Example 3]
- IC50 [1]: 5 nM
- IC50 (human MET kinase D1228N): 7.4 nM
- IC50 (human MET kinase F1200I): 5 nM
- IC50 (human MET kinase L1195V): 15.3 nM

Structure (SMILES): CNC(=O)Cn1cc(C(=O)Nc2ccc(Oc3ccnc4cc(OC)c(OC)cc34)cn2)c(=O)c(-c2ccc(F)cc2)c1 [Example 22]
- IC50 [1]: 14 nM
- IC50 (human MET kinase D1228N): 6.5 nM
- IC50 (human MET kinase F1200I): 2.5 nM
- IC50 (human MET kinase L1195V): 17.7 nM

Structure (SMILES): COc1ccc2nccc(Oc3ccc(NC(=O)c4cn(C)cc(-c5ccc(F)cc5)c4=O)nc3)c2c1 [Example 41, 5-(4-fluorophenyl)-N-(5-((6-methoxyquinolin-4yl)oxy)pyridin-2-yl)-1-methyl-4-oxo-1,4-dihydropyridine-3-carboxamide]
- IC50 [1]: 141 nM
- IC50 (human MET kinase D1228N): 646 nM
- IC50 (human MET kinase F1200I): 105 nM
- IC50 (human MET kinase L1195V): 2220 nM

Structure (SMILES): CCOc1ccc2nccc(Oc3ccc(NC(=O)c4cn(C(C)C)cc(-c5ccc(F)cc5)c4=O)nc3)c2c1 [Example 51, N-(5-((6-ethoxyquinolin-4-yl)oxy)pyridin-2-yl)-5-(4-fluorophenyl)-1-isopropyl-4-oxo-1,4-dihydropyridine-3-carboxamide]
- IC50 [1]: 112 nM
- IC50 (human MET kinase D1228N): 178 nM
- IC50 (human MET kinase F1200I): 35 nM
- IC50 (human MET kinase L1195V): 495 nM

Structure (SMILES): COc1cc2nccc(Oc3ccc(NC(=O)c4cn(C(C)C)cc(-c5ccc(F)cc5OC)c4=O)nc3)c2cc1OC [Example 32, N-(5-((6,7-dimethoxyquinolin-4yl)oxy)pyridin-2-yl)-5-(4-fluoro-2-methoxyphenyl)-1-isopropyl-4-oxo-1,4-dihydropyridine-3-carboxamide]
- IC50 [1]: 9 nM
- IC50 (human MET kinase D1228N): 17.4 nM
- IC50 (human MET kinase F1200I): 4.2 nM
- IC50 (human MET kinase L1195V): 44.8 nM

Structure (SMILES): COc1cc2nccc(Oc3ccc(NC(=O)c4cn(CCN(C)C)cc(-c5ccc(F)c(F)c5)c4=O)nc3)c2cc1OC [Example 43, 5-(3,4-difluorophenyl)-N-(5-((6,7-dimethoxyquinolin-4-yl)oxy)pyridin-2-yl)-1-]
- IC50 [1]: 11 nM
- IC50 (human MET kinase D1228N): 2.7 nM
- IC50 (human MET kinase F1200I): 2 nM
- IC50 (human MET kinase L1195V): 14.2 nM

Structure (SMILES): CCn1cc(C(=O)Nc2ccc(Oc3ccnc4ccc(OC)cc34)cn2)c(=O)c(-c2ccc(F)cc2)c1 [Example 39, 1-ethyl-5-(4-fluorophenyl)-N-(5-((6-methoxyquinolin-4-yl)oxy)pyridin-2-yl)-4-oxo-1,4-dihydropyridine-3-carboxamide]
- IC50 [1]: 83 nM
- IC50 (human MET kinase D1228N): 179 nM
- IC50 (human MET kinase F1200I): 31.6 nM
- IC50 (human MET kinase L1195V): 508 nM
